Patent US8952024B2, “Herbicidal pyrimidone derivatives” (E I du Pont de Nemours and Company, priority 2009, dated 2015)

Legend:
Test in all cases: Test B pre-/postemergence plant response
Type in all cases: in vivo
[1] = system: Surinam grass (Brachiaria decumbens)
Summary of the method: (§1)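 Response scores were assigned visually after 13 to 15 days in a greenhouse, comparing treated pots with controls on a 0–100 scale where 100 denotes complete control. Preemergence treatments went onto freshly seeded loam/sand soil; postemergence treatments onto plants 2 to 18 cm tall.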

[2] = system: Italian ryegrass (Lolium multiflorum)
Summary of the method: as §1

[3] = system: green foxtail (Setaria viridis)
Summary of the method: as §1

[4] = system: lambsquarters (Chenopodium album)
Summary of the method: as §1

[5] = system: woolly cupgrass (Eriochloa villosa)
Summary of the method: as §1

[6] = system: bermudagrass (Cynodon dactylon)
Summary of the method: as §1

[7] = system: giant foxtail (Setaria faberii)
Summary of the method: as §1

[8] = system: yellow nutsedge (Cyperus esculentus)
Summary of the method: as §1

corn (Zea mays) = system: corn (Zea mays)
Summary of the method: as §1

[9] = system: downy bromegrass (Bromus tectorum)
Summary of the method: as §1

[10] = system: blackgrass (Alopecurus myosuroides)
Summary of the method: as §1

[11] = system: morningglory (Ipomoea coccinea)
Summary of the method: as §1

[12] = system: large crabgrass (Digitaria sanguinalis)
Summary of the method: as §1

[13] = 250 g ai/ha, Preemergence, 0 to 100 scale
[14] = Postemergence, 62 g ai/ha, scale 0 (no effect) to 100 (complete control), 13 to 15 days
[15] = Postemergence, 125 g ai/ha, visual rating after 13 to 15 days, scale 0 (no effect) to 100 (complete control)
[16] = Preemergence, 31 g ai/ha, scale 0 to 100 (0 no effect, 100 complete control)
[17] = Preemergence, 125 g ai/ha, 0 to 100 scale
[18] = Postemergence, 31 g ai/ha, scale 0 to 100 (0 no effect, 100 complete control)
[19] = Postemergence, 250 g ai/ha, scale 0 to 100
[20] = Preemergence, 62 g ai/ha, scale 0 to 100 (0 no effect, 100 complete control)

In the case of Cc1ccc(F)cc1-n1c(-c2ccccc2)ncc(C(=O)C2=C(O)CCCC2=O)c1=O [Compound 44], the “Plant response rating, Surinam Grass” value [1, 13] is reported as 100, the “Plant response rating, Surinam Grass” value [1, 14] is reported as 95 and the “Plant response rating, Surinam Grass” value [1, 15] is reported as 95. For the same compound, the “Plant response rating, Surinam Grass” value [1, 16] was 65, the “Surinam Grass plant response rating” value [1, 17] was 90 and the “Plant response rating, Ryegrass, Italian” value [2, 13] was 0. The “Plant response rating, Ryegrass, Italian” value [2, 14] was 5, the “Plant response rating, Ryegrass, Italian” value [2, 15] was 10 and the “Plant response rating, Ryegrass, Italian” value [2, 16] was 0. For the same compound, the “Ryegrass, Italian plant response rating” value [2, 17] was 0, the “Plant response rating, Foxtail, Green” value [3, 13] was 100 and the “Plant response rating, Foxtail, Green” value [3, 18] was 90. For the same compound, the “Plant response rating, Foxtail, Green” value [3, 14] was 90, the “Plant response rating, Foxtail, Green” value [3, 15] was 90 and the “Foxtail, Green plant response rating” value [3, 19] was 90. For the same compound, the “Plant response rating, Foxtail, Green” value [3, 16] was 0, the “Plant response rating, Foxtail, Green” value [3, 20] was 98 and the “Foxtail, Green plant response rating” value [3, 17] was 98. For the same compound, the “Plant response rating, Lambsquarters” value [4, 13] was 100, the “Plant response rating, Lambsquarters” value [4, 14] was 95 and the “Plant response rating, Lambsquarters” value [4, 15] was 95. For the same compound, the “Lambsquarters plant response rating” value [4, 19] was 98, the “Plant response rating, Lambsquarters” value [4, 16] was 100 and the “Plant response rating, Lambsquarters” value [4, 20] was 100. The “Lambsquarters plant response rating” value [4, 17] was 100, the “Plant response rating, Cupgrass, Woolly” value [5, 13] was 85 and the “Plant response rating, Cupgrass, Woolly” value [5, 18] was 80. The “Plant response rating, Cupgrass, Woolly” value [5, 14] was 80, the “Plant response rating, Cupgrass, Woolly” value [5, 15] was 85 and the “Cupgrass, Woolly plant response rating” value [5, 19] was 95. The “Plant response rating, Cupgrass, Woolly” value [5, 16] was 0, the “Plant response rating, Cupgrass, Woolly” value [5, 20] was 45 and the “Cupgrass, Woolly plant response rating” value [5, 17] was 80. For the same compound, the “Plant response rating, Bermudagrass” value [6, 13] was 100, the “Plant response rating, Bermudagrass” value [6, 18] was 80 and the “Plant response rating, Bermudagrass” value [6, 14] was 95. The “Plant response rating, Bermudagrass” value [6, 15] was 95, the “Bermudagrass plant response rating” value [6, 19] was 98 and the “Plant response rating, Bermudagrass” value [6, 16] was 100. For the same compound, the “Plant response rating, Bermudagrass” value [6, 20] was 100, the “Bermudagrass plant response rating” value [6, 17] was 100 and the “Plant response rating, Foxtail, Giant” value [7, 13] was 98. The “Plant response rating, Foxtail, Giant” value [7, 18] was 95, the “Plant response rating, Foxtail, Giant” value [7, 14] was 95 and the “Plant response rating, Foxtail, Giant” value [7, 15] was 95. For the same compound, the “Foxtail, Giant plant response rating” value [7, 19] was 98, the “Plant response rating, Foxtail, Giant” value [7, 16] was 20 and the “Plant response rating, Foxtail, Giant” value [7, 20] was 45. For the same compound, the “Foxtail, Giant plant response rating” value [7, 17] was 75, the “Plant response rating, Nutsedge, Yellow” value [8, 13] was 90 and the “Plant response rating, Nutsedge, Yellow” value [8, 14] was 50. For the same compound, the “Plant response rating, Nutsedge, Yellow” value [8, 15] was 50, the “Plant response rating, Nutsedge, Yellow” value [8, 16] was 45 and the “Nutsedge, Yellow plant response rating” value [8, 17] was 75. The “Plant response rating, Corn” value (corn (Zea mays); [13]) was 0, the “Plant response rating, Corn” value (corn (Zea mays); [18]) was 75 and the “Plant response rating, Corn” value (corn (Zea mays); [14]) was 80. The “Plant response rating, Corn” value (corn (Zea mays); [15]) was 80, the “Corn plant response rating” value (corn (Zea mays); [19]) was 85 and the “Plant response rating, Corn” value (corn (Zea mays); [16]) was 0. For the same compound, the “Plant response rating, Corn” value (corn (Zea mays); [20]) was 0, the “Corn plant response rating” value (corn (Zea mays); [17]) was 0 and the “Plant response rating, Bromegrass, Downy” value [9, 13] was 5. For the same compound, the “Plant response rating, Bromegrass, Downy” value [9, 18] was 40, the “Plant response rating, Bromegrass, Downy” value [9, 14] was 70 and the “Plant response rating, Bromegrass, Downy” value [9, 15] was 80. The “Bromegrass, Downy plant response rating” value [9, 19] was 85, the “Plant response rating, Bromegrass, Downy” value [9, 16] was 0 and the “Plant response rating, Bromegrass, Downy” value [9, 20] was 0. The “Bromegrass, Downy plant response rating” value [9, 17] was 0, the “Plant response rating, Blackgrass” value [10, 13] was 60 and the “Plant response rating, Blackgrass” value [10, 18] was 0. The “Plant response rating, Blackgrass” value [10, 14] was 10, the “Plant response rating, Blackgrass” value [10, 15] was 30 and the “Blackgrass plant response rating” value [10, 19] was 30. For the same compound, the “Plant response rating, Blackgrass” value [10, 16] was 5, the “Plant response rating, Blackgrass” value [10, 20] was 30 and the “Blackgrass plant response rating” value [10, 17] was 40. The “Plant response rating, Morningglory” value [11, 13] was 95, the “Plant response rating, Morningglory” value [11, 14] was 70 and the “Plant response rating, Morningglory” value [11, 15] was 75. The “Plant response rating, Morningglory” value [11, 16] was 0, the “Plant response rating, Morningglory” value [11, 20] was 0 and the “Morningglory plant response rating” value [11, 17] was 50. For the same compound, the “Plant response rating, Crabgrass, Large” value [12, 13] was 100, the “Plant response rating, Crabgrass, Large” value [12, 18] was 85 and the “Plant response rating, Crabgrass, Large” value [12, 14] was 90. The “Plant response rating, Crabgrass, Large” value [12, 15] was 95, the “Crabgrass, Large plant response rating” value [12, 19] was 98 and the “Plant response rating, Crabgrass, Large” value [12, 16] was 65. The “Plant response rating, Crabgrass, Large” value [12, 20] was 75 and the “Crabgrass, Large plant response rating” value [12, 17] was 100.
